Measurements published in patent US20030068615A1, “Polypeptides that bind HIV gp120 and related nucleic acids, antibodies, compositions, and methods of use” (priority 1999, published 2003).
Like-named read-outs stand apart in the source and are kept apart here.

Molecular target: HIV-1LAI envelope gp120 (Human immunodeficiency virus type 1 group M subtype B, UniProt P03377)
Assay type: binding
Details: for Counts per 20′ Average-background: CCR5 18-mer scan; for Relative % of Control: mean of two syntheses and binding experiments ± average deviation, wild-type = 100%
[1] = Panel A, 21-mers of CD4, empty control 515 and 617
[2] = radiolabeled HIV-1LAI gp120, background subtracted
[3] = Panel D, 9-mers and 12-mers of CD4, empty control […]
[4] = Panel E, 9-mers and 12-mers of CD4, empty control 571
[5] = Panel C, 15-mers and 18-mers of CD4, empty control 556
[6] = CXCR4 18-mer scan, background subtracted, empty control 0
[7] = CXCR4 18-mer scan, empty control 412
[8] = Panel B, 15-mers and 18-mers of CD4, empty control 575

## SFPLAFTVEKLTGSGELWWQA
[1]
  COUNTS of radiolabeled gp120 retained: 2284 counts

## WITFDLKNKEVSVKRVTQDPK
Human CD4 21-mer scan, empty control 2075
  number of radioactive decays (counts) counted: 2126 counts

## CQLLTGLYFIGFFSGIFF
[2]
  Counts per 20′ Average-background: 489 counts per 20′

## MEGISIYTADNYTEEMGS
CXCR4 (1-18) alanine variants
  Relative % of Control: 70 ± 4%

## MDYQVSSPIYAINYYTSE [CCR5 (1-18) variant D11A]
CCR5 (1-18) alanine variants
  Relative % of Control: 63 ± 22%
CCR5 alanine mutant peptide, radiolabeled HIV-1LAI gp120
  percentage of binding of mutant polypeptide compared to wild-type polypeptide, gp120: 62.8%

## QKEEVQLLVFGL
[3]
  COUNTS of radiolabeled gp120 retained: 1785 counts

## VVLAFQKAS
[4]
  COUNTS of radiolabeled gp120 retained: 600 counts

## LAFQKASSIVYKKEG
[5]
  COUNTS of radiolabeled gp120 retained: 593 counts

## KKEGEQVEFSFPLAFTVE
[5]
  COUNTS of radiolabeled gp120 retained: 4683 counts

## FSSFNDSSQEEHQAFLQF
STRL33 amino terminus, 9-mer starting at the first residue of the printed sequence, background subtracted
  Binding Results For Window Length (counts bound-background), 9: 249 counts
STRL33 amino terminus, 12-mer starting at the first residue of the printed sequence, background subtracted
  Binding Results For Window Length (counts bound-background), 12: 403 counts
STRL33 amino terminus, 15-mer starting at the first residue of the printed sequence, background subtracted
  Binding Results For Window Length (counts bound-background), 15: 361 counts
STRL33 amino terminus, 18-mer starting at the first residue of the printed sequence, background subtracted
  Binding Results For Window Length (counts bound-background), 18: 3608 counts

## SSIVYKKEGEQV
[4]
  COUNTS of radiolabeled gp120 retained: 615 counts

## GNFLCKAVHVIYTVNLYS
[6]
  radioactive counts recorded in twenty minutes: 231 counts
[7]
  radioactive counts recorded in twenty minutes: 643 counts

## QAMQVTETLGMTHCCINP [CCR5 segment 277-]
[2]
  Counts per 20′ Average-background: 81 counts per 20′

## GNTMCQLLTGLYFIGFFS [CCR5 segment 97-]
[2]
  Counts per 20′ Average-background: 941 counts per 20′

## FGLTANSDTHLLQGQ
[8]
  COUNTS of radiolabeled gp120 retained: 625 counts

## DSDTYICEV
[3]
  COUNTS of radiolabeled gp120 retained: 712 counts

## WIPALLLTIPDFIFANVS
[6]
  radioactive counts recorded in twenty minutes: 182 counts
[7]
  radioactive counts recorded in twenty minutes: 594 counts

## KIEDSDTYICEVEDQ
[8]
  COUNTS of radiolabeled gp120 retained: 1088 counts

## AGGFQKHRSLKIIFLVMA
STRL33 18-mer scan, background subtracted, first of two count columns
  radioactive counts recorded in twenty minutes: 340.5 counts
STRL33 18-mer scan, background subtracted, second of two count columns
  radioactive counts recorded in twenty minutes: 260.5 counts

## WDQGNFPLIIKNLKIEDS
[8]
  COUNTS of radiolabeled gp120 retained: 626 counts

## IKNLKIEDS
[3]
  COUNTS of radiolabeled gp120 retained: 557 counts

## FKIDIVVLAFQKASSIVY
[5]
  COUNTS of radiolabeled gp120 retained: 843 counts

## QNQKKVEFKIDIVVLAFQ
[5]
  COUNTS of radiolabeled gp120 retained: 917 counts

## EFSFPLAFTVEKLTGSGELWW
[1]
  COUNTS of radiolabeled gp120 retained: 681 counts

## NQKKVEFKIDIV
[4]
  COUNTS of radiolabeled gp120 retained: 532 counts

## IYDINYYTSEPCQKINVK [CCR5 segment 9-26]
[2]
  Counts per 20′ Average-background: 228 counts per 20′

## FKIDIVVLAFQKASS
[5]
  COUNTS of radiolabeled gp120 retained: 1001 counts

## FPLIIKNLKIEDSDT
[8]
  COUNTS of radiolabeled gp120 retained: 539 counts

## VYKKEGEQVEFSFPLAFT
[5]
  COUNTS of radiolabeled gp120 retained: 4307 counts
